Measurements reported in PMC6917776, “Discovery of a chemical probe for PRDM9” (Nature Communications, 2019).

System: H3K4me3 at known PRDM9 binding loci and control TSS loci
Assay: ChIP-qPCR of H3K4me3 in PRDM9-transfected HEK293T cells
Type: cell-based, human
Conditions: for dCq (IP-Input): H3K4me3 antibody, Replicate 1; for 2^-dCq (H3K4me3 ChIP-qPCR, IP relative to H3) / H3K4me3 ChIP-qPCR 2^-dCq (IP-Input): Replicate 2; for 2^-dCq (H3K4me3 ChIP-qPCR, IP relative to H3): Antibody H3K4me3; for H3K4me3 ChIP-qPCR 2^-dCq (IP-Input): chr2:40281930-40282015 Intragenic (SLC8A1-AS1), Figure 7 C, H3K4me3 antibody relative to H3
Description: ChIP-qPCR assays were then conducted on known PRDM9 binding loci[26]. Ectopic expression of PRDM9^WT increased trimethylation of H3K4 (H3K4me3) at previously described PRDM9-specific intragenic and intergenic regions[26] (Fig. 7; Supplementary Fig. 12). […] The observed increases in H3K4me3 levels at intragenic and intergenic regions are therefore due directly to PRDM9 PR domain-dependent methylation activity, rather than through recruitment of other H3K4 methyltransferases or other indirect mechanisms.
ChIP qPCR analyses of H3K4me3 methylation levels of known PRDM9-bound loci and control loci. […] Concentrations used (µM) are indicated below each plot. (a–d) represent reported loci of PRDM9 methylation; (e, f) are transcriptional start sites (TSSs) which are not known loci of PRDM9 methylation. Data are normalized to total H3 and are presented as the mean ± upper and lower limits from two replicates. Representative plots of two independent experiments are shown in this figure. The coordinates and the genomic features associated with the assayed loci are indicated above each plot. Left Tailed Student's t-tests were performed by comparing DMSO (0 µM) treated cells to compound treated cells that have been transfected with the same plasmids. *p-value < 0.05 and **p-value < 0.01. Note that here we show a representative of two independent experiments (mean ± s.d of technical replicates) for our ChIP-qPCR experiments. Data obtained using this technique are inherently noisy due to stochastic differences in gene activity/histone positioning. Data are thus typically presented as representative rather than averaged. Source data are provided as a Source Data file.
HEK293T cells were transfected with 37.5 μg empty pcDNA3.1(+) vector (Invitrogen), or the same vector expressing either wild-type PRDM9 (PRDM9^WT) or a catalytically dead PRDM9 mutant (PRDM9^Mut) and 75 μL of Lipofectamine 2000 (Invitrogen) in 6 mL of Opti-MEM (GIBCO) for 48 h. […] ChIP assays were then performed as previously described. Briefly, cells were fixed in 1% formaldehyde and the fixation reaction was quenched in a final concentration of 0.1 M glycine. Cell pellets were first lysed in LB1 (50 mM HEPES-KOH pH 7.5, 140 mM NaCl, 1 mM EDTA, 10% Glycerol, 0.5% Igepal, 0.25% TritonX), washed once in LB2 Buffer (10 mM Tris-HCl pH 8, 200 mM NaCl, 1 mM EDTA, 0.5 mM EGTA) and finally sonicated in LB3 buffer (10 mM Tris-HCl pH 8, 100 mM NaCl, 1 mM EDTA, 0.5 mM EGTA, 0.1% Sodium deoxycholate, 0.5% N-laurosylsarcosine) using a bioruptor (Diagenode). Thereafter, 50 μg of chromatin was subjected to ChIP using the following antibodies purchased from Abcam: α-H3K4me3 (1:200, ab8580, lot:GR3207339-1) and α-H3 (1:250, ab1791, lot:GR300978-4). After extensive washing in RIPA wash buffer (50 mM HEPES-KOH pH 7.6, 100 mM LiCl, 1 mM EDTA, 1% Igepal, 0.7% Sodium Deoxycholate), DNA was eluted from beads. The eluted DNA was treated with RNase A and Proteinase K and purified using the QIAGEN PCR purification kit. qPCR was then carried out targeting the indicated loci (Supplementary Table 3). Upper and lower limits were defined by |2^−(dCq±s) − 2^−(∆Cq)|, where s = √((Standard deviation of Input Cq)^2 + (Standard deviation of Target Cq)^2). […]
formation. ChIP qPCR analyses of H3K4me3 methylation levels at known PRDM9-bound and control loci. Cells transfected with empty vector (negative control) or vectors overexpressing either wild-type PRDM9 (PRDM9 WT) or catalytically dead PRDM9 (PRDM9 MUT) were […]
Panels a-d represent reported loci of […]
(1 picture or pasted object on this page, not shown here)
PRDM9 methylation; e-f are TSSs which are not known sites of PRDM9 methylation. Data are normalized to total H3 and are presented as the mean ± upper and lower limits from two […]

COc1cc(OC)cc(-c2noc(N3CCN(C)C4(CCN(c5ccnc(C)c5)CC4)C3)n2)c1 [MRK-740]
dCq (IP-Input) (chr8:49932778-49932856 (Intergenic), PRDM9): -2.203
dCq (IP-Input) (chr8:49932778-49932856 (Intergenic), PRDM9_Cat.Dead): 1.033
dCq (IP-Input) (chr12:6643945-6644023 TSS (GAPDH), Empty Vector): -5.504
dCq (IP-Input) (chr12:6643945-6644023 TSS (GAPDH), PRDM9): -5.409
dCq (IP-Input) (chr12:6643945-6644023 TSS (GAPDH), PRDM9_Cat.Dead): -6.466
dCq (IP-Input) (chr19:8510167-8510261 TSS (HNRNPM), Empty Vector): -5.657
dCq (IP-Input) (chr19:8510167-8510261 TSS (HNRNPM), PRDM9): -5.412
dCq (IP-Input) (chr19:8510167-8510261 TSS (HNRNPM), PRDM9_Cat.Dead): -6.463
H3K4me3 levels at tested TSS sites (ChIP-qPCR, in words) (HEK293T transfected with wild-type PRDM9, 48 h): No significant reduction in H3K4me3 levels
H3K4me3 levels at PRDM9-dependent intragenic and intergenic loci (ChIP-qPCR, in words) (HEK293T transfected with wild-type PRDM9, 48 h, various concentrations): abrogated in a concentration-dependent manner in three out of four PRDM9-dependent loci
2^-dCq (H3K4me3 ChIP-qPCR, IP relative to H3) (Figure 7 D chr3:165514798-165514911 Intragenic (BCHE), Plasmid Empty Vector, Drug Conc. 2.5): 0.6821
2^-dCq (H3K4me3 ChIP-qPCR, IP relative to H3) (Figure 7 D chr3:165514798-165514911 Intragenic (BCHE), Plasmid Empty Vector, Drug Conc. 5): 0.9187
2^-dCq (H3K4me3 ChIP-qPCR, IP relative to H3) (Figure 7 D chr3:165514798-165514911 Intragenic (BCHE), Plasmid Empty Vector, Drug Conc. 10): 0.5228
2^-dCq (H3K4me3 ChIP-qPCR, IP relative to H3) (Figure 7 D chr3:165514798-165514911 Intragenic (BCHE), Plasmid PRDM9WT, Drug Conc. 2.5): 6.769
2^-dCq (H3K4me3 ChIP-qPCR, IP relative to H3) (Figure 7 D chr3:165514798-165514911 Intragenic (BCHE), Plasmid PRDM9WT, Drug Conc. 5): 7.878
2^-dCq (H3K4me3 ChIP-qPCR, IP relative to H3) (Figure 7 D chr3:165514798-165514911 Intragenic (BCHE), Plasmid PRDM9WT, Drug Conc. 10): 3.468
2^-dCq (H3K4me3 ChIP-qPCR, IP relative to H3) (Figure 7 E chr12:6643945-6644023 TSS (GAPDH), Plasmid Empty Vector, Drug Conc. 2.5): 49.5681
2^-dCq (H3K4me3 ChIP-qPCR, IP relative to H3) (Figure 7 E chr12:6643945-6644023 TSS (GAPDH), Plasmid Empty Vector, Drug Conc. 5): 83.0384
2^-dCq (H3K4me3 ChIP-qPCR, IP relative to H3) (Figure 7 E chr12:6643945-6644023 TSS (GAPDH), Plasmid Empty Vector, Drug Conc. 10): 114.864
2^-dCq (H3K4me3 ChIP-qPCR, IP relative to H3) (Figure 7 E chr12:6643945-6644023 TSS (GAPDH), Plasmid PRDM9WT, Drug Conc. 2.5): 64.1133
2^-dCq (H3K4me3 ChIP-qPCR, IP relative to H3) (Figure 7 E chr12:6643945-6644023 TSS (GAPDH), Plasmid PRDM9WT, Drug Conc. 5): 130.72
2^-dCq (H3K4me3 ChIP-qPCR, IP relative to H3) (Figure 7 E chr12:6643945-6644023 TSS (GAPDH), Plasmid PRDM9WT, Drug Conc. 10): 21.1787
2^-dCq (H3K4me3 ChIP-qPCR, IP relative to H3) (Figure 7 F chr19:8510167-8510261 TSS (HNRNPM), Plasmid Empty Vector, Drug Conc. 2.5): 123.77
2^-dCq (H3K4me3 ChIP-qPCR, IP relative to H3) (Figure 7 F chr19:8510167-8510261 TSS (HNRNPM), Plasmid Empty Vector, Drug Conc. 5): 107.435
2^-dCq (H3K4me3 ChIP-qPCR, IP relative to H3) (Figure 7 F chr19:8510167-8510261 TSS (HNRNPM), Plasmid Empty Vector, Drug Conc. 10): 99.1079
2^-dCq (H3K4me3 ChIP-qPCR, IP relative to H3) (Figure 7 F chr19:8510167-8510261 TSS (HNRNPM), Plasmid PRDM9WT, Drug Conc. 2.5): 68.6717
2^-dCq (H3K4me3 ChIP-qPCR, IP relative to H3) (Figure 7 F chr19:8510167-8510261 TSS (HNRNPM), Plasmid PRDM9WT, Drug Conc. 5): 143.684
2^-dCq (H3K4me3 ChIP-qPCR, IP relative to H3) (Figure 7 F chr19:8510167-8510261 TSS (HNRNPM), Plasmid PRDM9WT, Drug Conc. 10): 36.5414
H3K4me3 ChIP-qPCR 2^-dCq (IP-Input) (Empty Vector, Drug Conc. 2.5): 0.6992
H3K4me3 ChIP-qPCR 2^-dCq (IP-Input) (Empty Vector, Drug Conc. 5): 0.9795
H3K4me3 ChIP-qPCR 2^-dCq (IP-Input) (Empty Vector, Drug Conc. 10): 0.6781
H3K4me3 ChIP-qPCR 2^-dCq (IP-Input) (PRDM9WT, Drug Conc. 2.5): 6.293
H3K4me3 ChIP-qPCR 2^-dCq (IP-Input) (PRDM9WT, Drug Conc. 5): 5.934
